# Laboratory results: patent US20260297083A1, “SUBSTITUTED ACETYLENE COMPOUND DERIVATIVES AND THEIR PHARMACEUTICAL USE” (AVELOS THERAPEUTICS INC., priority 2023, published 2026)
# Molecular target: T1, Polθ polymerase domain (amino acids 1792-2590) (Homo sapiens, UniProt O75417)
# T1 construct: 10×Histidine-SUMO (N, cleaved yes); made in house; host or cells: E. coli
# T1 sequence (O75417 1792-2590): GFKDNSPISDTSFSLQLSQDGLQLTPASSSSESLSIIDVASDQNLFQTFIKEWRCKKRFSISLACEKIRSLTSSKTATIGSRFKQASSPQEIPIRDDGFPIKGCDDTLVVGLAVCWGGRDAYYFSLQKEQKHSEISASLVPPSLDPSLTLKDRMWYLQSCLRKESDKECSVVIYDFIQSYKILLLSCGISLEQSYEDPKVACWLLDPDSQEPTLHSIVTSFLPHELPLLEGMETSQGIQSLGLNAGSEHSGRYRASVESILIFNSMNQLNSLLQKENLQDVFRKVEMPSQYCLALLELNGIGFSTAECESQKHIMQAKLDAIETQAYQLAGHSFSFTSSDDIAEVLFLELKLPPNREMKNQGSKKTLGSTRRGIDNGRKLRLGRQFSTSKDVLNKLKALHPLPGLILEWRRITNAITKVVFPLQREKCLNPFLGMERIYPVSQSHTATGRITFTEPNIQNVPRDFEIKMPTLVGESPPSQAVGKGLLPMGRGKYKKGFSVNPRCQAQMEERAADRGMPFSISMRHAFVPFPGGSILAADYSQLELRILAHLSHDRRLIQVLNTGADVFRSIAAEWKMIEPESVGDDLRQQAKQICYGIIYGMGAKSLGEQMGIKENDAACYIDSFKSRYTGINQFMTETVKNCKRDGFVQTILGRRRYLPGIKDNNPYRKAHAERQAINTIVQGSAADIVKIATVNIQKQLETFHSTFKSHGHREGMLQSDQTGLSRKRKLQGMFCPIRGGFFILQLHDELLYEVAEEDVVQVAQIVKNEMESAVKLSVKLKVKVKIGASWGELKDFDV
# Assay: Picogreen assay of Polθ polymerase activity
# Format: biochemical
# Details: 12-point concentration response, 90 minutes incubation at room temperature, 8 nM Polθ in 2×polymerase mixture, read-out: PolQ IC50
# Excerpt: The DNA sequence of the polQ gene (Genebank ID #NM 199420.4) was chemically synthesized. The DNA sequence encoding the polymerase domain (amino acids 1792-2590) was subcloned into an E. coli expression plasmid, resulting in the fusion of 10×Histidine-SUMO tag at the N terminus of the polymerase domain.
# The protein was expressed in E. coli. and purified using a 2-step IMAC (immobilized metal chelate affinity chromatography) procedure. Briefly stated, the overexpressed E. coli lysate was subjected to Ni-NTA purification, and an N-terminal tag was digested by a SUMO protease. Then, the excised fragment of 10×Histidine-SUMO tag was removed using Ni-NTA beads. The resulting protein was used for the Picogreen assay, as described below.
# The methods of DNA complex preparation were slightly modified from the protocol previously reported (Zatreanu et al., 2021, Nature Communications, 12:3636). Briefly stated, polθ substrate was prepared by mixing Oligo1 (5′-GCG GCT GTC ATA AG-3′) and Oligo2 (5′-GCTACATTGACAATGGCATCAAATCTCAGATTGCGTCTTATGACAGCCGCG-3′) in an annealing buffer (20 mM Tris-Cl, pH 7.5, 50 mM NaCl) to the final concentration of 22 uM and 20 uM, respectively. The Polθ product was prepared by mixing Oligo3 (5′-CGCGGCTGTCATAAGACGCAATCTGAGATTTGATGCCATTGTCAATGTAGC-3′) and Oligo2 (5′-GCTACATTGACAATGGCATCAAATCTCAGATTGCGTCTTATGACAGCCGCG-3′) to the final concentration of 20 uM. The polθ product was used for the top signal control in the Picogreen assay. Both substrate and product were heated to 95° C. […] and cooled slowly to room temperature.
# To evaluate the ability of test compounds to inhibit the activity of polθ in vitro, a Picogreen assay was performed to measure polθ IC50 (nM).
# The reactions were performed at room temperature in an assay buffer (25 mM Tris-HCl, pH 7.5, 12.5 mM NaCl, 0.5 mM MgCl2, 5% (v/v) glycerol, 0.01% (v/v) Triton X-100, 0.01% (w/v) Bovine serum albumin, 1 mM DTT). Thirty microliters of 2×polymerase mixture (8 nM Polθ enzyme in an assay buffer) were distributed to 96 well plates, test compounds were prepared by dilution in 100% DMSO to obtain the correct dose range for a 12-point concentration response and 1 μl was dispensed into each well, and then 30 microliters of 2×substrate mix (100 nM DNA and 40 uM dNTPs in an assay buffer) was added. After 90 minutes of incubation, the reaction was stopped and DNA was stained by adding 40 microliters of Picogreen solution (1:80 dilution of Picogreen, Invitrogen, Cat #P7581, 25 mM Tris-HCl, pH 7.5, 10 mM EDTA, pH 7.5).
# The fluorescence intensity was measured at excitation/emission=485 nm/520 nm using an Ensight plate reader (Perkin Elmer). The data was analyzed by GraphPad Prism software (Version 8.4.3) to calculate IC50.
row,IC50,SMILES
1,0.001 to 0.05 µM,Cc1cc(C(F)(F)F)cc(N2[C@H](C(=O)N(CC#Cc3cnc(C(=O)N(C)C)cn3)c3ccc(F)c(C)c3)CCS2(=O)=O)n1 [compound 68]
2,0.001 to 0.05 µM,Cc1cc(C(F)(F)F)cc(N2[C@H](C(=O)N(CC#Cc3cnc(C(N)=O)nn3)c3ccc(F)c(C)c3)CCS2(=O)=O)n1 [compound 123]
3,0.001 to 0.05 µM,Cc1cc(C(F)(F)F)cc(N2[C@H](C(=O)N(CC#Cc3cncc(N4CCOCC4)n3)c3ccc(F)c(C)c3)CCS2(=O)=O)n1 [compound 42]
4,0.001 to 0.05 µM,Cc1cc(C(F)(F)F)cc(N2[C@H](C(=O)N(CC#Cc3ccc(Cc4ccc(=O)[nH]n4)nc3)c3ccc(F)c(C)c3)CCS2(=O)=O)n1 [compound 133]
5,0.001 to 0.05 µM,Cc1cc(C(F)(F)F)cc(N2[C@H](C(=O)N(CC#Cc3cnc(NC(N)=O)cn3)c3ccc(F)c(C)c3)CCS2(=O)=O)n1 [compound 35]
6,0.001 to 0.05 µM,Cc1cc(C(F)(F)F)cc(N2[C@H](C(=O)N(CC#Cc3cccc(C(N)=O)n3)c3ccc(F)c(C)c3)CCS2(=O)=O)n1 [compound 120]
7,0.001 to 0.05 µM,Cc1cc(C(F)(F)F)cc(N2C(=O)CC[C@H]2C(=O)N(CC#Cc2ccc(N)nn2)c2ccc(F)c(Cl)c2)n1 [compound 3]
8,0.001 to 0.05 µM,CCN(CC)c1ccc(C#CCN(C(=O)[C@@H]2CCS(=O)(=O)N2c2cc(C(F)(F)F)cc(C)n2)c2ccc(F)c(C)c2)nn1 [compound 25]
9,0.001 to 0.05 µM,Cc1cc(C(F)(F)F)cc(N2[C@H](C(=O)N(CC#Cc3ccc(NC(C)C)nn3)c3ccc(F)c(C)c3)CCS2(=O)=O)n1 [compound 20]
10,> 0.101 µM,Cc1ccc(F)c(N(CC#Cc2cnc(N3CCOCC3)cn2)C(=O)[C@H]2CCS(=O)(=O)N2c2cc(C(F)(F)F)cc(C)n2)c1 [compound 41]
11,0.001 to 0.05 µM,Cc1cc(N(CC#Cc2cnc(N3CCOCC3)cn2)C(=O)[C@@H]2CCS(=O)(=O)N2c2cc(C(F)(F)F)cc(C(F)(F)F)n2)ccc1F [compound 125]
12,0.051 to 0.1 µM,Cc1cc(C(F)(F)F)cc(N2[C@H](C(=O)N(CC#Cc3cccc(=O)[nH]3)c3ccc(F)c(C)c3)CCS2(=O)=O)n1 [compound 87]
13,0.001 to 0.05 µM,Cc1cc(C(F)(F)F)cc(N2[C@H](C(=O)N(CC#Cc3cnc(C(N)=O)c(F)c3)c3ccc(F)c(C)c3)CCS2(=O)=O)n1 [compound 96]
14,0.001 to 0.05 µM,Cc1cc(N(CC#Cc2ccc(C(N)=O)nc2)C(=O)[C@@H]2CCS(=O)(=O)N2c2cc(C(F)(F)F)cc(C(F)(F)F)n2)ccc1F [compound 126]
15,0.001 to 0.05 µM,Cc1cc(C(F)(F)F)cc(N2C(=O)CC[C@H]2C(=O)N(CC#CCN2CCN(c3ncccn3)CC2)c2ccc(F)c(C)c2F)n1 [compound 16]
16,> 0.101 µM,Cc1cc(C(F)(F)F)cc(N2C(=O)CC[C@H]2C(=O)N(CC#Cc2ccc(C(N)=O)nc2)c2ccc(F)c(C)c2)n1 [compound 12]
17,0.001 to 0.05 µM,Cc1cc(C(F)(F)F)cc(N2[C@H](C(=O)N(CC#Cc3cccc(=O)n3C)c3ccc(F)c(C)c3)CCS2(=O)=O)n1 [compound 92]
18,0.001 to 0.05 µM,Cc1cc(C(F)(F)F)cc(N2[C@H](C(=O)N(CC#Cc3ncc(C(=O)N4C5CCC4COC5)cn3)c3ccc(F)c(C)c3)CCS2(=O)=O)n1 [compound 83]
19,> 0.101 µM,Cc1cc(C(F)(F)F)cc(N2[C@H](C(=O)N(CC#Cc3cncc(C(=O)N4C[C@H](C)N[C@@H](C)C4)n3)c3ccc(F)c(C)c3)CCS2(=O)=O)n1 [compound 74]

row,IC50,SMILES
1,0.001 to 0.05 µM,C=C(F)C(=O)Nc1cncc(C#CCN(C(=O)[C@@H]2CCS(=O)(=O)N2c2cc(C(F)(F)F)cc(C)n2)c2ccc(F)c(C)c2)c1 [compound 130]
2,0.001 to 0.05 µM,Cc1cccc(N(CC#Cc2ccc(N)nn2)C(=O)[C@@H]2CCC(=O)N2c2cc(C(F)(F)F)cc(C)n2)c1 [compound 1]
3,0.051 to 0.1 µM,Cc1cc(C(F)(F)F)cc(N2[C@H](C(=O)N(CC#Cc3cccc(OC(F)F)n3)c3ccc(F)c(C)c3)CCS2(=O)=O)n1 [compound 89]
4,> 0.101 µM,Cc1cc(C(F)(F)F)cc(N2[C@H](C(=O)N(CC#Cc3ccc(C(N)=O)nc3)Cc3ccc(F)c(C)c3)CCS2(=O)=O)n1 [compound 113]
5,0.001 to 0.05 µM,Cc1cc(C(F)(F)F)cc(N2[C@H](C(=O)N(CC#Cc3cncc(C(=O)N4CC5CCC(C4)O5)n3)c3ccc(F)c(C)c3)CCS2(=O)=O)n1 [compound 71]
6,0.001 to 0.05 µM,Cc1cc(C(F)(F)F)cc(N2[C@H](C(=O)N(CC#Cc3nc(C)c(C(N)=O)nc3C)c3ccc(F)c(C)c3)CCS2(=O)=O)n1 [compound 119]
7,0.001 to 0.05 µM,Cc1cc(C(F)(F)F)cc(N2[C@H](C(=O)N(CC#Cc3cnc(N4CC5(COC5)C4)cn3)c3ccc(F)c(C)c3)CCS2(=O)=O)n1 [compound 38]
8,0.001 to 0.05 µM,Cc1cc(C(F)(F)F)cc(N2[C@H](C(=O)N(CC#Cc3cnc(N4C[C@@H](C)O[C@@H](C)C4)cn3)c3ccc(F)c(C)c3)CCS2(=O)=O)n1 [compound 47]
9,0.001 to 0.05 µM,Cc1cc(C(F)(F)F)cc(N2[C@H](C(=O)N(CC#Cc3cnc(-n4ccnn4)cn3)c3ccc(F)c(C)c3)CCS2(=O)=O)n1 [compound 57]
10,0.001 to 0.05 µM,Cc1cc(C(F)(F)F)cc(N2[C@H](C(=O)N(CC#Cc3cnc4c(c3)C(=O)N(C)C4=O)c3ccc(F)c(C)c3)CCS2(=O)=O)n1 [compound 100]
11,0.001 to 0.05 µM,Cc1cc(C(F)(F)F)cc(N2[C@H](C(=O)N(CC#Cc3ccc(N)nn3)c3ccc(F)c(C)c3)CN(C)S2(=O)=O)n1 [compound 109]
12,> 0.101 µM,Cc1cc(C(F)(F)F)cc(N2[C@@H](C(=O)N(CC#Cc3ccc(C(N)=O)nc3)Cc3ccc(F)c(C)c3)CCS2(=O)=O)n1 [compound 114]
13,0.001 to 0.05 µM,Cc1cc(C(F)(F)F)cc(N2[C@H](C(=O)N(CC#Cc3cnc(N4CCOCC4)c(C(F)(F)F)n3)c3ccc(F)c(C)c3)CCS2(=O)=O)n1 [compound 46]
14,0.001 to 0.05 µM,Cc1ccc(F)c(N(CC#Cc2cnc(NC(C)C)cn2)C(=O)[C@@H]2CCS(=O)(=O)N2c2cc(C(F)(F)F)cc(C)n2)c1 [compound 37]
15,0.001 to 0.05 µM,"C=CC(=O)Nc1cc(C#CCN(C(=O)[C@@H]2CCS(=O)(=O)N2c2cc(C(F)(F)F)cc(C)n2)c2ccc(F)c(C)c2)ccn1 [compound 139, (S)-N-(3-(2-acrylamidopyridin-4-yl)prop-2-yn-1-yl)-N-(4-fluoro-3-methylphenyl)-2-(6-methyl-4-(trifluoromethyl)pyridin-2-yl)isothiazolidine-3-carboxamide 1,1-dioxide]"
16,0.001 to 0.05 µM,Cc1cc(C(F)(F)F)cc(N2C(=O)CC[C@H]2C(=O)N(CC#Cc2ccc(N)nn2)c2ccc(F)c(C)c2)n1 [compound 5]
17,0.001 to 0.05 µM,Cc1cc(C(F)(F)F)cc(N2[C@H](C(=O)N(CC#Cc3ccc(Cc4cccc5c(=O)[nH]cnc45)nc3)c3ccc(F)c(C)c3)CCS2(=O)=O)n1 [compound 135]
18,0.001 to 0.05 µM,Cc1cc(C(F)(F)F)cc(N2[C@H](C(=O)N(CC#Cc3cnc(C(=O)N4CCOCC4)cn3)c3ccc(F)c(C)c3)CCS2(=O)=O)n1 [compound 69]
